The source of these data is ChEMBL document CHEMBL3397017, “Discovery of a new series of potent prostacyclin receptor agonists with in vivo activity in rat” (Bioorg Med Chem Lett, 2015).

One may read the EC50 as the concentration that produces a half-maximal response. As usually defined, the half-life is the time needed for the level to fall by half in the phase considered. In general, bioavailability refers to the share of a dose that reaches the circulation, judged against a reference dose that is usually intravenous. The low end stands for little systemic uptake, the high end for much systemic uptake.

In series [1] the target is T1, Prostaglandin D2 receptor (Homo sapiens, UniProt Q13258).
T1 sequence (Q13258 whole entry): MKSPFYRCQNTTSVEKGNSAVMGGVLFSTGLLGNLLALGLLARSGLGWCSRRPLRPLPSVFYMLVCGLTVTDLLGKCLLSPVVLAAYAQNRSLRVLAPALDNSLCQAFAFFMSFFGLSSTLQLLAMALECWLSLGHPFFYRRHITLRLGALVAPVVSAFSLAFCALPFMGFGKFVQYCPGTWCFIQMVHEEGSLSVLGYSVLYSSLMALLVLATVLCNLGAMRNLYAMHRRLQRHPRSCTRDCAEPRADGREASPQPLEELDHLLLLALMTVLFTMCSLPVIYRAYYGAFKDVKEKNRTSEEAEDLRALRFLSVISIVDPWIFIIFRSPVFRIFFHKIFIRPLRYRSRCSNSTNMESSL
Briefly: Agonist activity at human recombinant DP1 receptor expressed in melanophores assessed as induction of pigment redistribution incubated for 90 mins.

Series [2] concerns the target T2, Prostacyclin receptor (Homo sapiens, UniProt P43119). Briefly: Intrinsic activity at human recombinant IP receptor expressed in CHO-K1 cells incubated for 1 hr by HTRF cAMP assay relative to 1 uM iloprost. It is filed as functional, cell-based. On the technique in general: In TR-FRET formats the signal depends on donor and acceptor labels being close together.
Series [3] concerns the target Prostacyclin receptor (Rattus norvegicus, UniProt P43253). Briefly: Agonist activity at rat recombinant IP receptor expressed in CHO-K1 cells incubated for 1 hr by HTRF cAMP assay. It is filed as functional, cell-based.
In series [4] the test system is Liver microsome. Briefly: Stability in rat liver microsomes. It is filed as ADME. On the technique in general: Liver microsomes are a subcellular fraction often used to study metabolism.
In series [5] the test system is Liver microsome. Briefly: Stability in human liver microsomes. It counts as ADME.
Series [6] addresses Prostacyclin receptor (Rattus norvegicus) (UniProt P43253). Briefly: Intrinsic activity at rat recombinant IP receptor expressed in CHO-K1 cells incubated for 1 hr by HTRF cAMP assay relative to 1 uM iloprost. It counts as functional, cell-based.
For series [7], the target named is T2, Prostacyclin receptor. Briefly: Agonist activity at human recombinant IP receptor expressed in CHO-K1 cells incubated for 1 hr by HTRF cAMP assay. It counts as functional, cell-based.
Series [8] concerns Rattus norvegicus. Briefly: Prevention of right ventricular weight increase in rat model of monocrotaline-induced pulmonary arterial hypertension at 30 mg/kg, sc administered twice daily for 21 days relative to sham animal (reference value: 19 no unit). It is filed as functional, Heart right ventricle.
Series [9] concerns Rattus norvegicus. Briefly: Prevention of right ventricular weight increase in rat model of monocrotaline-induced pulmonary arterial hypertension at 1 mg/kg, sc administered twice daily for 21 days relative to sham animal (reference value: 19 no unit). It counts as functional, Heart right ventricle. Particulars: route subcutaneous.
A short description of series [10]: Half life in sc dosed rat. It counts as ADME, organism-based. Particulars: in vivo.
The subject of series [11] is Rattus norvegicus. Briefly: Prevention of right ventricular weight increase in rat model of monocrotaline-induced pulmonary arterial hypertension at 10 mg/kg, sc administered twice daily for 21 days relative to sham animal (reference value: 19 no unit). It is filed as functional, Heart right ventricle.
The species entered for a further series is Homo sapiens. Briefly: Selectivity index, ratio of EC50 for human recombinant DP1 receptor to EC50 for human recombinant IP receptor.
For series [12], the target named is T1, Prostaglandin D2 receptor. Briefly: Agonist activity at human recombinant DP1 receptor by melanophore assay.
For series [13], the system named is Rattus norvegicus. Briefly: Improvement in right ventricular systolic pressure in rat model of monocrotaline-induced pulmonary arterial hypertension at 10 mg/kg, sc administered twice daily for 21 days. It is filed as functional, organism-based. Also noted: dose 10 mg/kg. Particulars: Heart right ventricle.
For series [14], the system named is Rattus norvegicus. Briefly: Prevention of right ventricular weight increase in rat model of monocrotaline-induced pulmonary arterial hypertension administered subcutaneously twice daily for 21 days. It counts as functional, organism-based. To be noted: Heart right ventricle.
Series [15] in a line: Half life in iv dosed rat. It counts as ADME, organism-based. Particulars: in vivo.
Series [16] can be described thus: Oral bioavailability in rat. It is filed as ADME, organism-based. Particulars: in vivo.

SMILES strings stand for the structures. Calls of active or inactive are those of the source.

T2 sequence (P43119 whole entry): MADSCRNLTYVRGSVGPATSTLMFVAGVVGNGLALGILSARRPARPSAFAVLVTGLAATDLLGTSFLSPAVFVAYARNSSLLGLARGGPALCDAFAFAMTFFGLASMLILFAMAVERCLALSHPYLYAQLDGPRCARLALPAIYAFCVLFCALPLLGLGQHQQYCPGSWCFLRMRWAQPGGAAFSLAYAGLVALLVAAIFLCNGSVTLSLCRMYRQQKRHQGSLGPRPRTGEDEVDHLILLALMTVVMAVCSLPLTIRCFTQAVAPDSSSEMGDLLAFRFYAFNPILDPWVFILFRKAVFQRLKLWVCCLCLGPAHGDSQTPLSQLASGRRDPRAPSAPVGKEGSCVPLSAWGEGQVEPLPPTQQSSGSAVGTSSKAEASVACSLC
Prostacyclin receptor (Rattus norvegicus), sequence (P43253 whole entry): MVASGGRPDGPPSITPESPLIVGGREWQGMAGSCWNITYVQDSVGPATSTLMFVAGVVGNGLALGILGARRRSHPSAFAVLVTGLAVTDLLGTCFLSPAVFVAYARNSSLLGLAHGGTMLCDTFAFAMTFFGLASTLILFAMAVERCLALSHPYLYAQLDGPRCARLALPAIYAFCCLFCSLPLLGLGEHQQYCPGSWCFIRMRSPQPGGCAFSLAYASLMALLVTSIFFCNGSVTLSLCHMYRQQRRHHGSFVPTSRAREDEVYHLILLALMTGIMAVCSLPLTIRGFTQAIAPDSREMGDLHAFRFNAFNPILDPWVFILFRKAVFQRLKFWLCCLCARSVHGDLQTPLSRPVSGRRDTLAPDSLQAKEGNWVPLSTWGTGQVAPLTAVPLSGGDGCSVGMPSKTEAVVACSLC
Prostacyclin receptor (Rattus norvegicus, UniProt P43253), sequence (P43253 whole entry): as above

For the molecule `COc1cccc(-c2cc(=O)n(CC3CCc4c(cccc4OCC(=O)O)C3)nc2-c2ccccc2)c1` (racemic), the EC50 in [1] came out at 17 nM; on Prostacyclin receptor [3], 310 nM; on Prostacyclin receptor [7], 60 nM. Besides, the results for the Intrinsic activity (on Prostacyclin receptor [2]; in series [6]) were 88% and 96%, respectively. The Stability entry in the series on Liver microsome [4] and in the series with Liver microsome [5] was “Unstable” in each case.
Consider `O=C(O)COc1cccc2c1CCC(Cn1ncc(-c3cccc(F)c3F)c(-c3ccccc3)c1=O)C2` (racemic), for which the EC50 amounted to 36 nM in [1], 110 nM on Prostacyclin receptor [3], 400 nM in series [12] and 38 nM on Prostacyclin receptor [7]. Also, the Intrinsic activity came out at 87% at Prostacyclin receptor [2] and 101% in series [6]. In addition, the “fold change (FC)” value in the series on Rattus norvegicus [8] (route subcutaneous) turned out to be 13; with Rattus norvegicus [9] it was 9; in the series with Rattus norvegicus [11] (route subcutaneous), 9. In series [10], the half-life is 2.5 h. Further, the Stability result with Liver microsome [4] and with Liver microsome [5] was “Stable” each time. The Ratio EC50 in the series listed under Homo sapiens came out at 10. In addition, the outcome in the series with Rattus norvegicus [13] was Active. The Activity entry in the series with Rattus norvegicus [14] is “Dose-dependent effect”.
Take `O=C(O)COc1cccc2c1CC[C@@H](Cn1ncc(-c3cccc(F)c3F)c(-c3ccc(F)cc3)c1=O)C2` (racemic): the EC50 came to 48 nM in series [1], 200 nM at Prostacyclin receptor [3], 140 nM in series [12] and 6 nM at Prostacyclin receptor [7]. Moreover, the Intrinsic activity at Prostacyclin receptor [2] was determined as 98%; in series [6] it was 100%. In addition, the outcome with Rattus norvegicus [8] (Heart right ventricle) and with Rattus norvegicus [11] (Heart right ventricle) was inactive. For the same molecule, in [15], the half-life is 2 h. The same molecule showed a bioavailability in series [16] of 76%.
